The source of these data is patent publication US5344952A, “Fluoroketone enzyme inhibitors” (priority 1993, dated 1994).

Assay [1] addresses T1, Rabbit Liver Esterase (E.C. 3.1.1.1) (Oryctolagus cuniculus, UniProt P12337).
T1 construct: from tissue; host or cells: liver
T1 sequence (P12337 19-565): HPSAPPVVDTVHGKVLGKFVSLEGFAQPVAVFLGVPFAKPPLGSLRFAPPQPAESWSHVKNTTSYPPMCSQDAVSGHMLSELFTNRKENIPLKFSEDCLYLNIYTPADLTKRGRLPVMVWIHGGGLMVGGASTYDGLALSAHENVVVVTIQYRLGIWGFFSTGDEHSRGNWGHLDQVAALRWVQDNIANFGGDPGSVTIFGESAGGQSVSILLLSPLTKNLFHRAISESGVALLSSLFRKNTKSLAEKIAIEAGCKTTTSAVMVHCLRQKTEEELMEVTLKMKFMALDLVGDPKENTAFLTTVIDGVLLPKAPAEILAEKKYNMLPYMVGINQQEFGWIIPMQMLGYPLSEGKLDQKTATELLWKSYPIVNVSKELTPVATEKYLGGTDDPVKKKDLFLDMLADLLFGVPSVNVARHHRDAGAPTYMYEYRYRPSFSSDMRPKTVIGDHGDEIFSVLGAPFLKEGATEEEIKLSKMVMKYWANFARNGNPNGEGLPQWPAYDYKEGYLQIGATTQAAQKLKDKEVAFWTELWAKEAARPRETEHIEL
Nature of the assay: Inhibition constant, rabbit liver esterase (o-nitrophenylbutyrate hydrolysis). It counts as biochemical. The conditions noted are these: RLE; 50 mM Tris pH=8.0; 20 min incubation at ambient temperature; substrate o-nitro-phenylbutrate. As for the experimental part:
Inhibition constants were measured in 50 mM Tris pH=8.0. Enzyme and inhibitor were incubated at ambient temperature for 20 minutes. Substrate for the enzyme was then added and the rate of hydrolysis was followed spectrophotometrically. The substrate for PLE and RLE was o-nitro-phenylbutrate and for AChE was acetyl thiocholine and Ellman's reagent.

The next assay relates to RLE. Kind of assay: Sandwich assay for Adenovirus, free inhibitor added to control wells (RLE, o-nitrophenyl butyrate). The format is biochemical, rabbit. Conditions: control wells having no antigen; 5×10^-9 M RLE, 50 mM TRIS pH 8.5, 1 mM o-nitrophenyl butyrate; color without inhibitor in ca 15 minutes. As for the experimental part: A polyvinyl chloride microtiter plate was coated with anit-adenovirus antibody by incubating the plate for 1 hour at 37° C. in a 1:900 dilution of 4.5 mg/mL stock solution of the antibody in a 10 mM carbonate 20 mM ethylenediaminetetraacetic acid (EDTA) buffer. The plate was washed 3 times with a wash buffer solution consisting of 0.5% casein in 10 mM TRIS and 154 mM NaCl at pH 7.6. Adenovirus infected HeLa cells diluted to ca 1×10^5 plaque forming units (PFU)/ml in pH 7.4 phosphate buffered-saline containing 0.05% polyoxyethylenesorbitan monolaurate, 0.1 mg/ML gentamicin, 0.5% phenol red, 0.1% bovine serum albumin, 10 mM EDTA and 100 mM ethylene bis(oxyethylenenitrilo) tetraacetic acid were serially diluted in 2-fold steps across the plate. The plate was incubated-as above to bind the cells to the antibody, washed with wash buffer, incubated with a 0.005 mg/mL tracer solution of anti-adenovirus conjugated to alkaline phosphatase in wash buffer containing 0.5% gelatin and 10% inactivated fetal calf serum. Excess tracer solution was decanted and the plate was washed 3 times with TRIS buffer (without casein). A mixture of a 1×10^-4 M solution of the blocked inhibitor from Example I and 5×10^-9 M RLE in 50 mM TRIS buffer, pH 8.5, was added and the plate was incubated at room temperature for 10 minutes. o-Nitrophenyl butyrate (1 mM) was then added to each well of the plate. […]

pKi: −log10 of the molar value.

For orientation: pKi means −log10 of the Ki, conventionally taken in molar units. Lower therefore signals a large Ki. Take `O=C(/C=C/c1cccc(O)c1)C(F)(F)F` [1,1,1-trifluoro-4-(3-hydroxyphenyl)-3-trans-buten-2-one]: the pKi in assay [1] is 6.80.
For `O=C(CCc1ccc(O)cc1)C(F)(F)F` [1,1,1-Trifluoro-4-(4-hydroxyphenyl)-2-butanone], the “color formation in control wells on addition of free inhibitor” value in the assay with RLE is “inhibited color formation for longer periods”.
